In patent US20130190299A1, “METHODS AND COMPOSITIONS FOR TREATMENT OF MULTIPLE SCLEROSIS” (Victoria Link Ltd., priority 2010, published 2013):

Tests used:
prolactin = test: Serum prolactin in treated mice; assay type: in vivo; conditions: for serum prolactin: immunized and unimmunized mice
[1] = tested on: bone marrow-derived macrophages; test: Bone marrow-derived macrophages treated in vitro with or without LPS; conditions: for macrophage viability (MTT dye reduction): presence or absence of LPS
Experimental: Identification of how risperidone alters pro-inflammatory and/or anti-inflammatory immune responses is necessary.
Studies were conducted herein to evaluate the regulation of macrophage proinflammatory responses in vitro.

splenocytes = test: Cellular profile of spleen in treated mice (flow cytometry); assay type: in vivo, C57BL/6 mice
Source text: The effect of drug treatment on antigen-specific immune responses can be determined at 8 (pre-onset), […] draining lymph node (LN) cells and splenocytes from untreated and risperidone-treated, immunized or unimmunized mice. Cytokine production in response to myelin oligodendrocyte glycoprotein antigen (MOG) can be assessed by cytokine bead assay, which measures 10 cytokines simultaneously, or ELISA, and proliferation can be measured by ^3H thymidine uptake. Cellular profiles in the spleen and lymph node cells can be determined by flow cytometric analysis and can include markers for helper T cells, T regulatory cells, and macrophages.

microglia = test: Microglial reactivity by Iba-1 expression in brains of immunized mice; assay type: in vivo
Experimental: FIG. 9A illustrates exemplary Iba-1 expression on microglia in the cerebellum of mice. […] Tissue samples were taken at peak disease (15 days post immunization). Shown are the scores for microglia reactivity (Iba score) and disease.
One group (risperidone d11) was immunized but only received risperidone treatment starting at day 11 (i.e. after disease onset). Scores for Iba-1 reactivity were assessed blinded and derived from a combined score for Iba intensity (0-3) and # Iba+ foci (0-3).
Scores for Iba-1 reactivity were assessed blinded and derived from a combined score (0-6) for Iba intensity (0-3) and number of Iba+ foci (0-3). Scores for the following brain regions were combined: cerebellum, brain stem, hippocampus, and olfactory bulb (0-24).
Scores for Iba-1 reactivity in the cerebellum were assessed blinded and derived from a combined score (0-6) for Iba intensity (0-3) and number of Iba+ foci (0-3).
Studies were performed to assess microglial reactivity via the expression of Iba-1 (FIG. 9A-F).

cholinergic receptors = conditions: cited from earlier work
al-adrenergic receptors = conditions: cited from earlier work
α2-adrenergic receptors = conditions: cited from earlier work
EAE [2] = tested on: EAE
Experimental: FIG. 1A illustrates an exemplary treatment of C57BL/6 mice with risperidone (administered in drinking water; 3 mg/kg/day) following immunization to induce EAE with MOG (myelin oligodendrocyte glycoprotein) peptide in complete Freund's adjuvant. Disease score is based on the progressive ascending paralysis that characterizes EAE in this animal model where 0=normal and 5=complete body paralysis (i.e. moribund).
FIG. 1B illustrates an exemplary treatment of C57BL/6 mice with risperidone (administered in drinking water; 3 mg/kg/day) following immunization to induce EAE. The data is from 4 separate and independent experiments.
AUC was measured from days 0-26 and the results are from 4 separate and independent experiments.
In these preliminary studies risperidone was given in the drinking water at a calculated dose of 1 or 3 mg/kg/day.
Commonly this time period is between 13-20 days post immunization with myelin oligodendrocyte glycoprotein (50 μg/mouse) in complete Freund's adjuvant and injected i.p with pertussis toxin (200 ng/mouse) on days 0 and 2. Treatment during the “chronic” stage (when disease scores remain stable) may begin 30 days post immunization with myelin oligodendrocyte glycoprotein. For all of these studies, the optimal dose of risperidone may be used as determined by the experiments described above. […] This model is well established and has the added benefit of having many different immunological reagents available for use in the C57BL/6 system.

EAE [3] = test: EAE model in IL-4Ra-deficient BALB/c mice; assay type: in vivo; conditions: BALB/c mice deficient in IL-4Ra
[4] = molecular target: dopaminergic D2 receptors (Homo sapiens, UniProt P14416); conditions: cited from earlier work
Sequence of dopaminergic D2 receptors (P14416 whole entry): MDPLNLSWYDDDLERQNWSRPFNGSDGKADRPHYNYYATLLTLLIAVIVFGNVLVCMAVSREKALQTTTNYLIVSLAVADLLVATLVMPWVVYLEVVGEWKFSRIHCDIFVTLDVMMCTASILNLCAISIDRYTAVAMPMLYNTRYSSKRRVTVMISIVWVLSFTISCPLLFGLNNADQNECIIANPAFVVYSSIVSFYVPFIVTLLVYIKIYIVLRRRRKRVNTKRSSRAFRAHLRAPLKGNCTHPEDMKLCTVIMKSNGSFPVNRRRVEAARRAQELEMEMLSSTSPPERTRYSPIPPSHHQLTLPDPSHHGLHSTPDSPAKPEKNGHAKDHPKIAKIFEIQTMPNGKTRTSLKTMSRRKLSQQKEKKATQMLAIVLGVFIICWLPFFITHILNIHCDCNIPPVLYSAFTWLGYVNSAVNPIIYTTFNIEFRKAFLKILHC

[5] = Body weight of treated normal and immunized mice; conditions: for body weight in normal mice: normal (unimmunized) mice
[6] = tested on: splenic macrophages (F4/80+ cells); test: Activation markers on splenic macrophages of immunized mice at peak disease (flow cytometry); assay type: in vivo, C57BL/6 mice; conditions: risperidone 3 mg/kg/day
Experimental: Studies were also conducted herein to evaluate the regulation of macrophage proinflammatory responses in vivo.

[7] = tested on: auto-reactive T cell responses; test: Cytokine production and T cell proliferation in response to MOG antigen or ConA, cells from treated immunized mice; assay type: cell-based, C57BL/6 mice
Source text: (§1) Shown are the mean and standard error of the mean (n=5 mice per group).
as §1, §1, §1, §1, §1
FIG. 5A illustrates exemplary antigen specific (L-17 production (pg/ml) in C57BL/6 mice, which were treated with risperidone or vehicle alone, and immunized to induce EAE 40 days earlier. Shown are the mean and standard error of the mean (n=5-10 mice per group).
FIG. 5B illustrates exemplary antigen specific interferon y production (pg/ml) in C57BL/6 mice, which were treated with risperidone or vehicle alone, and immunized to induce EAE 40 days earlier. Shown are the mean and standard error of the mean (n=5-10 mice per group).
FIG. 5C illustrates exemplary antigen specific IL-10 production (pg/ml) in C57BL/6 mice, which were treated with risperidone or vehicle alone, and immunized to induce EAE 40 days earlier. Shown are the mean and standard error of the mean (n=5-10 mice per group).
FIG. 5D illustrates exemplary T cell proliferation in counts per minute in immunized and normal C57BL/6 mice, which were treated with risperidone or vehicle alone. Shown are the mean and standard error of the mean (n=5-10 mice per group).
The effect of drug […] draining lymph node (LN) cells and splenocytes from untreated and risperidone-treated, immunized or unimmunized mice. Cytokine production in response to myelin oligodendrocyte glycoprotein antigen (MOG) can be assessed by cytokine bead assay, which measures 10 cytokines simultaneously, or ELISA, and proliferation can be measured by ^3H thymidine uptake. Cellular profiles in the spleen and lymph node cells can be determined by flow cytometric analysis and can include markers for helper T cells, T regulatory cells, and macrophages.

EAE [8] = test: EAE model in BALB/c mice immunized with PLP peptide
[9] = Pajonk, 2004, cited from earlier work
[10] = tested on: bone marrow-derived macrophages; conditions: positive control; La Flamme, unpublished results; cited from earlier work
[11] = 20 μg/ml risperidone or 10 μ/ml clozapine
[12] = 20 μg/ml risperidone or 10 μ/ml clozapine, versus vehicle-treated macrophages
[13] = chronic stage of disease, 40 days after immunization
[14] = chronic stage, 40 days post immunization
[15] = peak disease, 21 days post immunization

In the case of `Cc1nc2n(c(=O)c1CCN1CCC(c3noc4cc(F)ccc34)CC1)CCCC2` [risperidone, 3-[2-[4-(6-fluoro-1,2-benzisoxazol-3-yl)-1-piperidinyl]ethyl]-6,7,8,9-tetrahydro-2-methyl-4H-pyrido[1,2-a]pyrimidin-4-one], the “serum prolactin (hyperprolactinemia)” value (prolactin; BALB/c mice) is reported as “develop hyperprolactinemia”, the “serum/plasma prolactin (hyperprolactinemia)” value (prolactin; IL-4Ra-deficient BALB/c mice) is reported as “develop hyperprolactinemia” and the serum prolactin (prolactin) is reported as “high levels of serum prolactin”. The “macrophage viability (MTT dye reduction)” value [1, 11] was “fully viable”, the “IL-12 production in response to LPS” value [1, 12] was “produce less” and the “NO production in response to LPS” value [1, 12] was “produce less”. For the same molecule, the “IL-10 production in response to LPS” value ([1]; risperidone 20 μg/ml, versus vehicle-treated macrophages) was “produce more”, the “number of helper T cells (CD4+CD25−) in the spleen” value (splenocytes; [13]) was “does not alter” and the “number of neutrophils (Gr1+ cells) in the spleen” value (splenocytes; [13]) was “reduce”. For the same molecule, the “number of regulatory T cells (CD4+CD25+ Treg) in the spleen” value (splenocytes; [13]) was “enhance”, the “overall immune cells in the spleen (total splenocyte numbers)” value (splenocytes; peak disease (day 21), risperidone 3 mg/kg/day, clozapine 30 mg/kg/day, unimmunized and immunized mice) was “does not result in overall loss” and the “microglial reactivity (Iba-1 expression)” value (microglia; immunized mice, peak disease (15 days post immunization), cerebellum, brain stem, hippocampus, olfactory bulb) was “greatly reduced”. For the same molecule, the “microglial reactivity (Iba-1 expression), treatment after disease onset” value (microglia; treatment starting at day 11 post-immunization, assessed on day 15) was “reduces microglial reactivity”, the “affinity for cholinergic receptors” value (cholinergic receptors) was “no affinity” and the “binding to al-adrenergic receptors” value (al-adrenergic receptors) was “binds”. For the same molecule, the “affinity for α2-adrenergic receptors” value (α2-adrenergic receptors) was “lower affinity”, the “protective effect in dose-response” value (EAE [2]; 3 mg/kg/day, p<0.0001 by 2-way ANOVA) was “significant protective effect” and the “area under the curve (AUC), total disease burden” value (EAE [2]; AUC of disease score, risperidone days 0-26, 4 independent experiments) was “reduction”. The “average disease score during the chronic stage” value (EAE [2]; drinking water from one day before immunization) was “stable reduction”, the “detrimental effects on the mice” value (EAE [2]; risperidone 1 or 3 mg/kg/day, immunized or unimmunized mice, aside from slight weight gain) was “no detrimental effects” and the “efficacy of higher versus lower dose” value (EAE [2]; risperidone 3 vs 1 mg/kg/day, clozapine 30 vs 15 mg/kg/day) was 3 mg/kg/day is more effective. For the same molecule, the “time of onset or incidence of EAE” value (EAE [2]; risperidone daily from the time of immunization) was “does not alter”, the “reduction in disease symptoms” value (EAE [3]) was “do not experience a reduction in disease symptoms” and the “% incidence versus vehicle” value (EAE [3]; 2 independent experiments) was “no difference in % incidence”. For the same molecule, the “affinity for dopaminergic D2 receptors” value [4] was “high affinity”, the “weight loss associated with EAE” value ([5]; mice immunized with MOG peptide) was “reduce the weight loss” and the “body weight in normal mice” value [5] was “promotes weight gain”. The “CD40 expression on splenic macrophages” value [6] was “reduced CD40 expression”, the “number of CD40-expressing splenic macrophages” value [6] was “not reduced” and the “MHC class II expression on splenic macrophages” value ([6]; clozapine 30 mg/kg/day, versus vehicle-treated immunized mice) was “reduced MHC class II expression”. For the same molecule, the “production of IL-10 with polyclonal stimulus (ConA)” value ([7]; 21 days post immunization) was “no alteration”, the “production of INF-γ with polyclonal stimulus (ConA)” value ([7]; 21 days post immunization) was “no alteration” and the “MOG specific IFN-γ production” value [7, 14] was “enhance”. For the same molecule, the “MOG-specific IL-10 production” value [7, 14] was “no effect”, the “MOG-specific IL-17 production” value [7, 14] was “no effect” and the MOG-specific proliferation [7, 14] was “no effect”. The “production of IFN-γ in response to MOG antigen” value [7, 15] was “does not alter”, the “production of IL-10 in response to MOG antigen” value [7, 15] was “significantly reduce” and the “production of IL-17 in response to MOG antigen” value [7, 15] was “significantly reduce”. The “% incidence” value (EAE [8]; 2 independent experiments, same for vehicle group) was 73%, the disease severity (EAE [8]; oral, from one day before immunization with PLP) was “significantly reduced disease severity” and the “maximum tolerated dose in mice” value [9] was “unable to identify a maximum tolerated dose”. For the same molecule, the toxicity ([9]; mice treated daily with doses up to 10 mg/kg/day for 18 months) was “no toxicity”.
In the case of Glatiramer acetate, the “pro-inflammatory (IL-12) cytokine production by LPS-stimulated macrophages” value [10] is listed as “reduce”.
For `CN1CCN(C2=Nc3cc(Cl)ccc3Nc3ccccc32)CC1` [clozapine], the serum prolactin (prolactin) was “not observed”, the “macrophage viability (MTT dye reduction)” value [1, 11] was “fully viable” and the “body weight in normal mice” value [5] was “promotes weight gain”.
